“Also recorded” adds a separate entry of the source. Ends that are not written are not given here.

Series [1] can be described thus: Equilibrium solubility in SGF and SIF. The series is classed as physicochemical. On the procedure:
The solubility of PSTi8 peptide was conducted using the equilibrium solubility method in SGF (pH 1.2) and SIF (pH 7.4). A total of 50 mg of PSTi8 was added to silanized glass vials containing 1 mL of buffer, and incubated for 1 h at 37 °C in a shaking water bath to attain equilibrium. After incubation, the samples were centrifuged for 10 min at 12,000 g, and supernatant was processed through SPE procedure and used for LC-MS/MS analysis.

A short description of another series: in vivo. The settings on record: female, SD, rat, ip, 5 mg/kg.
The next series in a line: Plasma stability study. The series is classed as in vitro ADME. On the procedure:
Fresh rat plasma (1 mL) was used and pre-incubated in a shaking water bath at 37 °C for 10 min. PSTi8 was added to rat plasma at a final concentration of 1 or 5 µM and then incubated for […] at 37 °C in a shaking water bath. A total of 100 µL samples were aliquoted at predetermined time points (0, 5, 15, 30, 60, 90, 120 and 240 min), followed by SPE processing and analyzed using the validated LC-MS/MS method. The plasma stability was determined as the % drug remaining at different time points relative to the drug at 0 min [19].

The nature of series [2]: Plasma protein binding, modified charcoal adsorption method. It counts as in vitro ADME. The following applies: rat plasma. On the procedure:
The protein binding study of the PSTi8 peptide was conducted in rat plasma using the modified charcoal adsorption method. The suspension of dextran-coated charcoal (0.66%) was prepared in the DPBS buffer (pH 7.4) and stirred overnight (18 h), before the study. PSTi8 (2 µM and 5 µM) was prepared in 2.5 mL rat plasma and pre-incubated at 37 ± 0.5 °C for 15 min in a shaking water bath. The exact volume of the charcoal suspension, the same as the plasma, was centrifuged at 3000 g for 15 min to separate DPBS. The supernatant was decanted and the pre-incubated plasma was added to the charcoal pellet-containing tubes. Plasma-containing charcoal tubes were incubated under continuous stirring up to 4 h. A total of 200 µL samples were collected at the time points of 0, 5, 10, 20, 30, 45, 60, 90, 120 and 180 min, and then centrifuged at 11,000 g for 2.5 min. A total of 100 µL supernatant of the centrifuged sample was separated, extracted using SPE and analyzed with LC-MS/MS. The % peptide remaining in the supernatant plasma sample versus time points data was evaluated using the i.v. bolus two-compartment analysis model on Phoenix 6.3 WinNonlin (Pharsight Corporation, Saint Louis, MO, USA). The model is defined by the bi-exponential Equation (1):(1) B(t)=A1exp(−αt)+A2exp(−βt) where B(t) % is the bound peptide remaining at time t and where A1, A2, α and β are constants.

Experimental for in vivo: Female SD rats were utilized and distributed into two groups (each group contained 6 animals). To each group, a 5 mg/kg dose of PSTi8 was administered i.v. and i.p. for PK determination.
After dosing in rats, blood (250 µL) samples were collected in EDTA containing microcentrifuge tubes at 0.08, 0.16, 0.33, 0.50, 0.75, 1, 2, 3, 4, 5 and 6 h time points. Plasma was separated from the blood after centrifugation and kept in a −80 °C freezer for LC-MS/MS analysis.
The PK parameters of PSTi8 were estimated with a one-compartmental PK model in Phoenix WinNonlin. The i.p. and s.c. PK were best described by a one-compartment first-order PK model without lag time. The i.v. PK was well explained by a one-compartment model with a bolus input and first-order elimination rate. The PK parameters include the elimination constant (K10), absorption constant (K01), Tmax, elimination half-life (K10-HL), absorption half-life (K01-HL), Cmax, AUC (stands for model derived AUC0-∞), CL/F, mean residence time (MRT) and Vd/F. The bioavailability of PSTi8 was determined using the ratio between the AUC from i.p. or s.c. and i.v. routes, after normalizing the dose.

As to PEGKGEQEHSQQKEEEEEMAV-NH2 [PSTi8], the thermodynamic solubility (usually the concentration in solution at equilibrium with solid) at 1 h in series [1] (simulated gastric fluid (SGF) pH 1.2, 37 °C) is 9.3 mg/mL. In series [1] (simulated intestinal fluid (SIF) pH 7.4, 37 °C), this substance displayed a thermodynamic solubility at 1 h of 25.8 mg/mL. Besides, in the series “in vivo”, the apparent clearance CL/F (as a rule, the apparent clearance, not corrected for the fraction that reaches the circulation) is 9.5 mL/min/kg and the Vd/F (in general, the apparent distribution volume after extravascular dosing) was determined as 0.26 ± 0.01 L/kg. For the same substance, in the series “Plasma stability study”, the “stability in rat plasma (in words)” value is “high stability; also recorded: stable”. Also, the amount remaining (in general, the share of the starting amount still present when the sample was taken) at 4 h, 1 µM in the series “Plasma stability study” (1 µM, at 4 h, rat plasma, 37 °C, read-out: plasma stability (% drug remaining)) was 88.8 ± 3.39%. Also, the share remaining at 4 h, 5 µM in “Plasma stability study” (5 µM, at 4 h, rat plasma, 37 °C, read-out: plasma stability (% drug remaining)) turned out to be 90.6 ± 6.65%. Further, the fraction unbound (usually the share of the substance not bound to proteins or other matrix) at 2 µM in series [2] (2 µM) was 0.264. Further, the free fraction (fraction unbound) at 5 µM in series [2] (5 µM) was 0.307. The free fraction (fraction unbound) in series [2] (summary in abstract) was less than 0.31.

(Values after PMC8780964, “Evaluation of the Pharmacokinetics of the Pancreastatin Inhibitor PSTi8 Peptide in Rats: Integration of In Vitro and In Vivo Findings” (Molecules, 2022).)
